Laboratory results from PubChem BioAssay AID1918933 (Molecular Pharmacology Branch, DTP, NCI, 2023).

System: 186277-243-T-J2-PDC complex spheroid viability
Assay: Anticancer human tumor 186277-243-T-J2-PDC patient-derived colon adenocarcinoma cell line growth inhibition
Conditions: for IC50: curve of first compound; for viability, T/C: stronger effect = lower value; active = viability on the fitted dose curve at most 10% of control; inactive = the rest
How it was run: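 Drug combinations with the LSD1 inhibitor iadademstat tested on tumor cells co-cultured as spheroids with endothelial cells and mesenchymal stem cells. Concentrations descended in half-log increments from clinical Cmax or 10 microM.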

[1] = second compound 0.1 µM, first compound 0.00949 µM
[2] = second compound 0.1 µM, first compound 0.03 µM
[3] = second compound 0.1 µM, first compound 0.0949 µM
[4] = second compound 0.1 µM, first compound 0.3 µM
[5] = second compound 0.1 µM, first compound 0.949 µM
[6] = second compound 0.1 µM, first compound 3 µM
[7] = second compound 0.316 µM, first compound 0.00949 µM
[8] = second compound 0.316 µM, first compound 0.03 µM
[9] = second compound 0.316 µM, first compound 0.0949 µM
[10] = second compound 0.316 µM, first compound 0.3 µM
[11] = second compound 0.316 µM, first compound 0.949 µM
[12] = second compound 0.316 µM, first compound 3 µM
[13] = second compound 1 µM, first compound 0.00949 µM
[14] = second compound 1 µM, first compound 0.03 µM
[15] = second compound 1 µM, first compound 0.0949 µM
[16] = second compound 1 µM, first compound 0.3 µM
[17] = second compound 1 µM, first compound 0.949 µM
[18] = second compound 1 µM, first compound 3 µM
[19] = second compound 3.16 µM, first compound 0.00949 µM
[20] = second compound 3.16 µM, first compound 0.03 µM
[21] = second compound 3.16 µM, first compound 0.0949 µM
[22] = second compound 3.16 µM, first compound 0.3 µM
[23] = second compound 3.16 µM, first compound 0.949 µM
[24] = second compound 3.16 µM, first compound 3 µM
[25] = second compound 10 µM, first compound 0.00949 µM
[26] = second compound 10 µM, first compound 0.03 µM
[27] = second compound 10 µM, first compound 0.0949 µM
[28] = second compound 10 µM, first compound 0.3 µM
[29] = second compound 10 µM, first compound 0.949 µM
[30] = second compound 10 µM, first compound 3 µM
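Note: 7 day exposure to compounds.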
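Throughout, for viability, T/C: 100% = DMSO vehicle control viability.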

Cn1ncnc1C1c2n[nH]c(=O)c3cc(F)cc(c23)NC1c1ccc(F)cc1 (stereo not given) + NC1CCC(NC2CC2c2ccccc2)CC1
inactive: viability, T/C (second compound 0.1 µM, first compound 0.000316 µM) 109% | viability, T/C (second compound 0.1 µM, first compound 0.001 µM) 105% | viability, T/C (second compound 0.1 µM, first compound 0.00316 µM) 111% | viability, T/C (second compound 0.1 µM, first compound 0.01 µM) 107% | viability, T/C (second compound 0.1 µM, first compound 0.0316 µM) 109% | viability, T/C (second compound 0.1 µM, first compound 0.1 µM) 104% | viability, T/C (second compound 0.316 µM, first compound 0.000316 µM) 113% | viability, T/C (second compound 0.316 µM, first compound 0.001 µM) 107% | viability, T/C (second compound 0.316 µM, first compound 0.00316 µM) 109% | viability, T/C (second compound 0.316 µM, first compound 0.01 µM) 108% | viability, T/C (second compound 0.316 µM, first compound 0.0316 µM) 103% | viability, T/C (second compound 0.316 µM, first compound 0.1 µM) 96.8% | viability, T/C (second compound 1 µM, first compound 0.000316 µM) 111% | viability, T/C (second compound 1 µM, first compound 0.001 µM) 107% | viability, T/C (second compound 1 µM, first compound 0.00316 µM) 110% | viability, T/C (second compound 1 µM, first compound 0.01 µM) 107% | viability, T/C (second compound 1 µM, first compound 0.0316 µM) 99.6% | viability, T/C (second compound 1 µM, first compound 0.1 µM) 97.8% | viability, T/C (second compound 3.16 µM, first compound 0.000316 µM) 109% | viability, T/C (second compound 3.16 µM, first compound 0.001 µM) 99% | viability, T/C (second compound 3.16 µM, first compound 0.00316 µM) 109% | viability, T/C (second compound 3.16 µM, first compound 0.01 µM) 103% | viability, T/C (second compound 3.16 µM, first compound 0.0316 µM) 99.3% | viability, T/C (second compound 3.16 µM, first compound 0.1 µM) 104% | viability, T/C (second compound 10 µM, first compound 0.000316 µM) 107% | viability, T/C (second compound 10 µM, first compound 0.001 µM) 113% | viability, T/C (second compound 10 µM, first compound 0.00316 µM) 102% | viability, T/C (second compound 10 µM, first compound 0.01 µM) 104% | viability, T/C (second compound 10 µM, first compound 0.0316 µM) 96% | viability, T/C (second compound 10 µM, first compound 0.1 µM) 108%
> 0.1 µM: IC50 (second compound 0.1 µM) | IC50 (second compound 0.316 µM) | IC50 (second compound 1 µM) | IC50 (second compound 3.16 µM) | IC50 (second compound 10 µM)

NS(=O)(=O)OCC1CC(n2ccc3c(NC4CCc5ccccc54)ncnc32)CC1O (stereo not given) + NC1CCC(NC2CC2c2ccccc2)CC1
0.907 µM: IC50 (second compound 10 µM)
inactive: viability, T/C [1] 113% | viability, T/C [2] 96.2% | viability, T/C [3] 85.8% | viability, T/C [4] 65.8% | viability, T/C [5] 33.2% | viability, T/C [7] 126% | viability, T/C [8] 112% | viability, T/C [9] 97.3% | viability, T/C [10] 63% | viability, T/C [11] 29.6% | viability, T/C [12] 12.1% | viability, T/C [13] 121% | viability, T/C [14] 103% | viability, T/C [15] 103% | viability, T/C [16] 58.1% | viability, T/C [17] 38.1% | viability, T/C [18] 15.6% | viability, T/C [19] 113% | viability, T/C [20] 113% | viability, T/C [21] 97.3% | viability, T/C [22] 71.2% | viability, T/C [23] 42.5% | viability, T/C [24] 14% | viability, T/C [25] 112% | viability, T/C [26] 102% | viability, T/C [27] 92.8% | viability, T/C [28] 73% | viability, T/C [29] 49.8% | viability, T/C [30] 15.1%
active: viability, T/C [6] 9.95%
0.686 µM: IC50 (second compound 3.16 µM)
0.521 µM: IC50 (second compound 0.1 µM)
0.474 µM: IC50 (second compound 0.316 µM)
0.518 µM: IC50 (second compound 1 µM)

O=C(C=Cc1cccc(S(=O)(=O)Nc2ccccc2)c1)NO + NC1CCC(NC2CC2c2ccccc2)CC1
0.305 µM: IC50 (second compound 3.16 µM)
0.285 µM: IC50 (second compound 10 µM)
0.294 µM: IC50 (second compound 1 µM)
0.289 µM: IC50 (second compound 0.1 µM)
0.29 µM: IC50 (second compound 0.316 µM)
inactive: viability, T/C [1] 109% | viability, T/C [2] 114% | viability, T/C [3] 121% | viability, T/C [4] 47.7% | viability, T/C [5] 20.5% | viability, T/C [6] 5.16% | viability, T/C [7] 116% | viability, T/C [8] 110% | viability, T/C [9] 109% | viability, T/C [10] 47% | viability, T/C [11] 15.7% | viability, T/C [13] 113% | viability, T/C [14] 105% | viability, T/C [15] 104% | viability, T/C [16] 47.1% | viability, T/C [17] 16.6% | viability, T/C [19] 99.7% | viability, T/C [20] 92% | viability, T/C [21] 113% | viability, T/C [22] 50.6% | viability, T/C [25] 104% | viability, T/C [26] 102% | viability, T/C [27] 113% | viability, T/C [28] 47.3%
active: viability, T/C [12] 2.43% | viability, T/C [18] 2.3% | viability, T/C [23] 16% | viability, T/C [24] 1.48% | viability, T/C [29] 15% | viability, T/C [30] 1.31%
